Tests used:
Porcine Coronary Model = conditions: stent coated with agent solubilized in eicosapentaenoic acid oil vs eicosapentaenoic acid oil coated stents; cited from earlier work
[1] = Maximum solubility / drug loading of therapeutic agent in vitamin E / bio-absorbable carrier base coating (crystal inspection after solvent removal); assay type: physicochemical; conditions: for maximum solubility: NMP
From the text: The amount of solvent that can be included in compositions of the present invention is not particularly limited. In accordance with one embodiment of the present invention, the amount of the therapeutic agent to be dissolved can be an amount up to the maximum amount that can be dissolved in the solvent, vitamin E compound and the bio-absorbable carrier component. The maximum amount of the therapeutic agent that can be dissolved is readily determined by simple mixing, as the presence of any non-dissolved therapeutic agent is apparent after solvent removal on visual inspection. In various embodiments, the amount of the therapeutic agent will be less than the maximum that can be dissolved. Upon administration to a subject of the therapeutic agent dissolved in the bio-absorbable carrier and the solvent, the amount of the given solvent can be limited to a pharmaceutically acceptable amount, which can be readily determined by one of skill in the art. In various aspects, it can be appropriate to include amounts of solvents in excess of pharmaceutically acceptable amounts, with excess solvent removed prior to providing the administration of the composition using conventional techniques such as evaporation.
Referring again to FIG. 1, the ratio of a vitamin E compound and the bio-absorbable carrier component is then determined (step 130). […] The bio-absorbable carrier component can include fish oil, fish oil mono, di and triglycerides, free fatty acids, fatty acid esters, partially oxidized oil, or hydrolyzed oil and any derivatives. After the formulations are made the solvent is removed from the sample under vacuum and the drug formulation is inspected under a microscope for crystal formation. The level of soluble drug can be influenced by such factors as vitamin E level, fish oil level, fatty acid ester content, free fatty acid content, mono, di or triglyceride content, presence of oxidation, or by hydrolysis byproducts of the oil. The amount of soluble drug can also be effected by the solvent and/or solvent loading that is used to load the drug into the formulation.
Referring again to FIG. 1, the bio-absorbable carrier component and the vitamin E compound or a combination thereof are provided (step 130). In accordance with one aspect of the present invention, the bio-absorbable carrier component and the vitamin E compound can be mixed together, for example, by vortexing, sonicating, stirring, rolling, or shaking, to form a second mixture (step 140). Accordingly, the second mixture can be mixed first, the first mixture can be mixed first, or the first mixture and the second mixture can be mixed substantially simultaneously. The first mixture and the second mixture can then be mixed (step 150) such that the therapeutic agent is dissolved, or, if the therapeutic agent was previously dissolved in the solvent, the therapeutic agent remains dissolved. After mixing the first mixture and the second mixture, the solvent is removed by techniques well known in the art, for example, by vacuum, washing, heating, evaporation and the like (step 160). Upon removal of the solvent, the resulting solution can be inspected for presence of crystal formation by techniques well known in the art (step 170). Suitable techniques for inspection for the presense of crystal formation include, for example, visual inspection, microscopic inspections, as well as chemical analysis techniques such as scanning electron microscopy (SEM), environmental scanning electron microscopy (ESEM), differential scanning calorimetry (DSC) and atomic force microscopy (AFM).
A bio-absorbable carrier component in combination with a vitamin E compound was made by mixing 1.5 grams of vitamin E and 3.5 grams of fish oil to form a base coating (30% vitamin E). A sample was then prepared by first dissolving 28 mg of rapamycin in 529 mg of NMP (N-methyl-2-pyrrolidone).

Compound: C=C1[C@@H](C)[C@H]2[C@H](Cc3ccccc3)NC(=O)[C@]23[C@H](OC(C)=O)/C=C/[C@@](C)(O)C(=O)[C@@H](C)C/C=C/[C@H]3[C@@H]1O [cytochalasin D]
- less area stenosis compared to the control group (Porcine Coronary Model): 38%
- less intimal hyperplasia compared to the control group (Porcine Coronary Model): 39%

Compound: COc1ccc2[nH]cc(CCNC(C)=O)c2c1 [melatonin]
- maximum solubility ([1]; 70% vitamin E and 30% fish oil fatty acid formulation): greater than 28%
- maximum solubility ([1]; 70% vitamin E and 30% fish oil formulation): 11.5%
- dissolution state of drug in coating after drying ([1]; 70% vitamin E and 30% fish oil, 9% by weight loading using N-methyl-2-pyrrolidone): totally dissolved
- dissolution state of drug in coating after drying ([1]; 70% vitamin E and 30% fish oil, 9% by weight loading using ethanol): forms crystals
- maximum level of drug loading attainable before crystals began to form after drying ([1]; 70% vitamin E/30% fish oil base coat, drug loaded from NMP): 11.5%
- maximum level of drug loading attainable before crystals began to form after drying ([1]; 70% vitamin E/30% fish oil fatty acids (FOFA) base coat, drug loaded from NMP): 28%

Compound: CC(=O)O[C@H]1C(=O)[C@@]2(C)[C@H]([C@H](OC(=O)c3ccccc3)[C@]3(O)C[C@H](OC(=O)[C@H](O)[C@@H](NC(=O)c4ccccc4)c4ccccc4)C(C)=C1C3(C)C)[C@]1(OC(C)=O)CO[C@@H]1C[C@@H]2O [paclitaxel]
- maximum level of drug loading attainable before crystals began to form after drying ([1]; 70% vitamin E/30% fish oil base coat, drug loaded from ethanol): 4.9%
- dissolution state of drug in coating after drying ([1]; 70% vitamin E/30% fish oil, 4.9% by weight loading using N-methyl-2-pyrrolidone): not totally dissolved
- dissolution state of drug in coating after drying ([1]; 70% vitamin E/30% fish oil, 5% by weight loading using ethanol): completely dissolved

— patent US20060088596A1, “Solubilizing a drug for use in a coating” (ATRIUM MEDICAL CORPORATION, priority 2004, published 2006)
